# From publication PMC4457528, “Identification of Novel Small Molecule Inhibitors of Oncogenic RET Kinase” (PLoS ONE, 2015)
# Read-outs that look alike come from different tables or passages of the source.
# Legend:
# Ba/F3-RET/PTC3 cells = test: Growth curves, Ba/F3 cells expressing RET/PTC3; conditions: Ba/F3 RET/PTC3, without IL-3
# Method: Fibroblasts were kept in medium supplemented with 5% fetal calf serum. Human cells were kept in 2% (TPC1), 5% (Nthy-ori-3-1), 20% (TT) or 10% (MZ-CRC-1) fetal calf serum. […] Cells were counted every 1–2 (fibroblasts) or 2–3 (human cell lines) days. Ba/F3 cells were kept in 10% fetal calf serum in 6-well dishes (200,000/well) and counted daily for 4 consecutive days, changing media every 2 days.
# Differently from Ba/F3 NCOA4-RET, parental Ba/F3 were grown in the presence of IL3. Data are the mean ± SD of two experiments performed in triplicate.
# KinomeScan kinase panel [1] = target: T1, KinomeScan kinase panel (Homo sapiens, UniProt P36888, R834Q); test: KinomeScan kinase panel, single concentration 10 µM; assay type: binding; conditions: FLT3(R834Q), 10 µM; read-out: score (%)
# T1 construct: purchased DiscoveRx (KinomeScan)
# KinomeScan kinase panel [2] = target: T2, KinomeScan kinase panel (Homo sapiens, UniProt P48729); test: as above; assay type: binding; conditions: CSNK1A1, 10 µM; read-out: score (%)
# T2 construct: purchased DiscoveRx (KinomeScan)
# KinomeScan kinase panel [3] = target: T3, KinomeScan kinase panel (Homo sapiens, UniProt Q13163); test: as above; assay type: binding; conditions: MEK5, 10 µM; read-out: score (%)
# T3 construct: purchased DiscoveRx (KinomeScan)
# KinomeScan kinase panel [4] = target: T4, KinomeScan kinase panel (Homo sapiens, UniProt Q9BQI3); test: as above; assay type: binding; conditions: EIF2AK1, 10 µM; read-out: score (%)
# T4 construct: purchased DiscoveRx (KinomeScan)
# T4 sequence (Q9BQI3 whole entry): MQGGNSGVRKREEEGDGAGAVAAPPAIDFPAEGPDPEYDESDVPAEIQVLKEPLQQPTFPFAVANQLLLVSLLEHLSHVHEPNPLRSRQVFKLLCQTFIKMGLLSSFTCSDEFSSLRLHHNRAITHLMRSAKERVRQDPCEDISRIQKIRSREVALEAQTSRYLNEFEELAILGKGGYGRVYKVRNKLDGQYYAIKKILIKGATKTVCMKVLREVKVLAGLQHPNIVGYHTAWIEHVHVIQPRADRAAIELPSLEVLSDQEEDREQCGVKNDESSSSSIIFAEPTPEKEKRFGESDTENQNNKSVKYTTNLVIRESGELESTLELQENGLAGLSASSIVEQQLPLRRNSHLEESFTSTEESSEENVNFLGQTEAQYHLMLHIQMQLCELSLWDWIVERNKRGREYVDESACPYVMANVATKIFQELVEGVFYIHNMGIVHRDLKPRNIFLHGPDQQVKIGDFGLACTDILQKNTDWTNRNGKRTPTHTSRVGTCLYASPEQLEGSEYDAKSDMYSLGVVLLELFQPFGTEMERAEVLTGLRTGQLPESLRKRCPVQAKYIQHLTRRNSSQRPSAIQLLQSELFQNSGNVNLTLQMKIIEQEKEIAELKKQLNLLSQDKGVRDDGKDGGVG
# KinomeScan kinase panel [5] = target: T5, KinomeScan kinase panel (Homo sapiens, UniProt Q5S007, G2019S); test: as above; assay type: binding; conditions: LRRK2(G2019S), 10 µM; read-out: score (%)
# T5 construct: purchased DiscoveRx (KinomeScan)
# KinomeScan kinase panel [6] = target: T6, KinomeScan kinase panel (Plasmodium falciparum, UniProt P61075); test: as above; assay type: binding; conditions: PFPK5(P.falciparum), 10 µM; read-out: score (%)
# T6 construct: purchased DiscoveRx (KinomeScan)
# T6 sequence (P61075 whole entry): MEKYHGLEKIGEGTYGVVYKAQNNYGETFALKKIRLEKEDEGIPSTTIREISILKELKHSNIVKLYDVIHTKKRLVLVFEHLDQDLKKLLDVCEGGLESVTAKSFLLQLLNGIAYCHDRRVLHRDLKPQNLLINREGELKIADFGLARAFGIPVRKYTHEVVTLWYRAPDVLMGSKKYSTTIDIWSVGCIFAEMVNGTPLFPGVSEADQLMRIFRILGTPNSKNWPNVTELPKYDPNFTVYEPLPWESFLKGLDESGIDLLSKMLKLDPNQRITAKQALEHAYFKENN
# KinomeScan kinase panel [7] = target: T7, KinomeScan kinase panel (Homo sapiens, UniProt Q8WU08); test: as above; assay type: binding; conditions: kinase YANK1; 10 µM; read-out: score (%)
# T7 construct: purchased DiscoveRx (KinomeScan)
# T7 sequence (Q8WU08 whole entry): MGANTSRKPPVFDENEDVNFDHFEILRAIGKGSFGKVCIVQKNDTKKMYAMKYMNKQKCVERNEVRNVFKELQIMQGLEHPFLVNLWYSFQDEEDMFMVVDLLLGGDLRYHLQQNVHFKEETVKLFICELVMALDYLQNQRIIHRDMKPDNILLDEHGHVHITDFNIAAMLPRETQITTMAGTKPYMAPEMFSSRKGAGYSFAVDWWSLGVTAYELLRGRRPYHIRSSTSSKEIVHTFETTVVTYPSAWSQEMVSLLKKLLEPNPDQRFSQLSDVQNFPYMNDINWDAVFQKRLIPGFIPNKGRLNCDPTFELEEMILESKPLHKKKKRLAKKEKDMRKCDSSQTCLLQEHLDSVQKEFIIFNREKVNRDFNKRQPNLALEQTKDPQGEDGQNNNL
# KinomeScan kinase panel [8] = target: T8, KinomeScan kinase panel (Homo sapiens, UniProt Q9BX84); test: as above; assay type: binding; conditions: kinase TRPM6; 10 µM; read-out: score (%)
# T8 construct: purchased DiscoveRx (KinomeScan)
# KinomeScan kinase panel [9] = target: T9, KinomeScan kinase panel (Homo sapiens, UniProt P42336, I800L); test: as above; assay type: binding; conditions: PIK3CA(I800L), 10 µM; read-out: score (%)
# T9 construct: purchased DiscoveRx (KinomeScan)
# T9 sequence (P42336 whole entry I800L): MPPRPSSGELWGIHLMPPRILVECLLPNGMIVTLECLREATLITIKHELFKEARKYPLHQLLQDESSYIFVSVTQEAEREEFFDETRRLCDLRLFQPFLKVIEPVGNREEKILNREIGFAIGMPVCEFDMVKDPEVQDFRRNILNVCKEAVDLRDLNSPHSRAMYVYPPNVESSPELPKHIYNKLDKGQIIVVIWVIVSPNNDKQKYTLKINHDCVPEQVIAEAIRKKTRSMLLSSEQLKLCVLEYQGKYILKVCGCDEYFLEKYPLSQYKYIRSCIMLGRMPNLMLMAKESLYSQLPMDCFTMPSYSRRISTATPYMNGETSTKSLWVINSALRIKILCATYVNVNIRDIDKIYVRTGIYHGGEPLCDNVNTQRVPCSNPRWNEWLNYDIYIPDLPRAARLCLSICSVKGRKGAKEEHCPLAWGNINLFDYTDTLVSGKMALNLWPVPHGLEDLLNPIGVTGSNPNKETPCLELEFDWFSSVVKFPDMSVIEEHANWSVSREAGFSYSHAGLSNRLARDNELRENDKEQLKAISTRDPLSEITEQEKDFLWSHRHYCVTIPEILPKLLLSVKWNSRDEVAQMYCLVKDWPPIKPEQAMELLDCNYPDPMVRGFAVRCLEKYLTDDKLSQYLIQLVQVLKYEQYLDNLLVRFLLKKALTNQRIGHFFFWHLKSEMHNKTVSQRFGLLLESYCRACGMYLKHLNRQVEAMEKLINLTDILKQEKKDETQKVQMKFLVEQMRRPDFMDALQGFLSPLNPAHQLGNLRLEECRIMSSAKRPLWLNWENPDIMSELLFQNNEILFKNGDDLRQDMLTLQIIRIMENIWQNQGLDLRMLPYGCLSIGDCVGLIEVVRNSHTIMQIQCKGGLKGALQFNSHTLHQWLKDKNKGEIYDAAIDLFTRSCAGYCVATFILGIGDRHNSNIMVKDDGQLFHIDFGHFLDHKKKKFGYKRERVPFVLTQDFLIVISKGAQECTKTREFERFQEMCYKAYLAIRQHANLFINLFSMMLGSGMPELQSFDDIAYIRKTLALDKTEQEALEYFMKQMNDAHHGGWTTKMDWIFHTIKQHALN
# KinomeScan kinase panel [10] = target: T10, KinomeScan kinase panel (Homo sapiens, UniProt P00533, T790M); test: as above; assay type: binding; conditions: EGFR(T790M), 10 µM
# T10 construct: purchased DiscoveRx (KinomeScan)
# KinomeScan kinase panel [11] = target: T11, KinomeScan kinase panel (Homo sapiens, UniProt Q6XUX3); test: as above; assay type: binding; conditions: kinase RIPK5; 10 µM; read-out: score (%)
# T11 construct: purchased DiscoveRx (KinomeScan)
# KinomeScan kinase panel [12] = target: T12, KinomeScan kinase panel (Homo sapiens, UniProt Q14004); test: as above; assay type: binding; conditions: CDC2L5, 10 µM
# T12 construct: purchased DiscoveRx (KinomeScan)
# KinomeScan kinase panel [13] = target: T13, KinomeScan kinase panel (Homo sapiens, UniProt Q86Y07); test: as above; assay type: binding; conditions: kinase VRK2; 10 µM; read-out: score (%)
# T13 construct: purchased DiscoveRx (KinomeScan)
# KinomeScan kinase panel [14] = target: T14, KinomeScan kinase panel (Homo sapiens, UniProt P41743); test: as above; assay type: binding; conditions: kinase PRKCI; 10 µM; read-out: score (%)
# T14 construct: purchased DiscoveRx (KinomeScan)
# KinomeScan kinase panel [15] = target: T15, KinomeScan kinase panel (Homo sapiens, UniProt Q00532); test: as above; assay type: binding; conditions: CDKL1, 10 µM; read-out: score (%)
# T15 construct: purchased DiscoveRx (KinomeScan)
# KinomeScan kinase panel [16] = target: T16, KinomeScan kinase panel (Homo sapiens, UniProt P10721, D816H); test: as above; assay type: binding; conditions: KIT(D816H), 10 µM; read-out: score (%)
# T16 construct: purchased DiscoveRx (KinomeScan)
# KinomeScan kinase panel [17] = target: T17, KinomeScan kinase panel (Homo sapiens, UniProt Q8NG66); test: as above; assay type: binding; conditions: NEK11, 10 µM; read-out: score (%)
# T17 construct: purchased DiscoveRx (KinomeScan)
# KinomeScan kinase panel [18] = target: T18, KinomeScan kinase panel (Homo sapiens, UniProt P42345); test: as above; assay type: binding; conditions: MTOR, 10 µM; read-out: score (%)
# T18 construct: purchased DiscoveRx (KinomeScan)
# KinomeScan kinase panel [19] = target: T19, KinomeScan kinase panel (Mycobacterium tuberculosis, UniProt P9WI81); test: as above; assay type: binding; conditions: PKNB(M.tuberculosis), 10 µM; read-out: score (%)
# T19 construct: purchased DiscoveRx (KinomeScan)
# T19 sequence (P9WI81 whole entry): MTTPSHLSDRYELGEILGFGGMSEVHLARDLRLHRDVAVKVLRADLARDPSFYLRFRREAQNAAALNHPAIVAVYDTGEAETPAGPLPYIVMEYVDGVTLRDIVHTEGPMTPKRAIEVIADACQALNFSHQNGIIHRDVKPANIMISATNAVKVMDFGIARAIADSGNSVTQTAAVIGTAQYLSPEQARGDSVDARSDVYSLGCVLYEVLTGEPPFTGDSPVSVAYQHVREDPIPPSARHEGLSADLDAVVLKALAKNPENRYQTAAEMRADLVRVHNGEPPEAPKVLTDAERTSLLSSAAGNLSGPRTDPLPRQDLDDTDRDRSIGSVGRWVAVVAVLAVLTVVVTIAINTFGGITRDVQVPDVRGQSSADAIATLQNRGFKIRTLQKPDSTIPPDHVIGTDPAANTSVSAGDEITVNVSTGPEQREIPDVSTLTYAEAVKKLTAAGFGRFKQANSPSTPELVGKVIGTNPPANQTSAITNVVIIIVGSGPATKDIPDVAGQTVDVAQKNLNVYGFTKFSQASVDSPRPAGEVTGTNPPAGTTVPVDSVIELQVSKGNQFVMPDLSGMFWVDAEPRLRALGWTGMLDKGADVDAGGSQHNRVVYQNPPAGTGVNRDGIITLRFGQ
# KinomeScan kinase panel [20] = target: T20, KinomeScan kinase panel (Homo sapiens, UniProt P11802); test: as above; assay type: binding; conditions: read-out: score (%)
# T20 construct: purchased DiscoveRx (KinomeScan)
# T20 sequence (P11802 whole entry): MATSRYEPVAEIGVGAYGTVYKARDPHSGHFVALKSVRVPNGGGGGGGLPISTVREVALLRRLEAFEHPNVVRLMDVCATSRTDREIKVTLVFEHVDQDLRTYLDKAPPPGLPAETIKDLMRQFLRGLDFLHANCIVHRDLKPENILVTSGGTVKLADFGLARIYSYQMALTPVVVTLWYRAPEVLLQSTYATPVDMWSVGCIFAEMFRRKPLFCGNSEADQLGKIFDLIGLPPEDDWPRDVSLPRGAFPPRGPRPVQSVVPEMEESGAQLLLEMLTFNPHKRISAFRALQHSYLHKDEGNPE
# KinomeScan kinase panel [21] = target: T21, KinomeScan kinase panel (Homo sapiens, UniProt P51956); test: as above; assay type: binding; conditions: NEK3, 10 µM; read-out: score (%)
# T21 construct: purchased DiscoveRx (KinomeScan)
# T21 sequence (P51956 whole entry): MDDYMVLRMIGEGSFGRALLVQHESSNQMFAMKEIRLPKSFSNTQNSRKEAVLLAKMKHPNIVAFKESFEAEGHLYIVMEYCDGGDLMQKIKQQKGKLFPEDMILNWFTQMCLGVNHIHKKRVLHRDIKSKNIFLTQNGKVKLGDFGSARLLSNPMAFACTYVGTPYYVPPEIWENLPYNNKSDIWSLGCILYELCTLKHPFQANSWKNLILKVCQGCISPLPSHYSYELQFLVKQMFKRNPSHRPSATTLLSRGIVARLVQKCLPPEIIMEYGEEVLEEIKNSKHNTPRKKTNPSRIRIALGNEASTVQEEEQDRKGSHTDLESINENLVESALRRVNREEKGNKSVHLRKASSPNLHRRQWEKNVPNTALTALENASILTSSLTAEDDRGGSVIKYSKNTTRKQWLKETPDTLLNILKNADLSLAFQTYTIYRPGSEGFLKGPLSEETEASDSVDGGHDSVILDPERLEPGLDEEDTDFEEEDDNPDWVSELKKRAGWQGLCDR
# KinomeScan kinase panel [22] = target: T22, KinomeScan kinase panel (Homo sapiens, UniProt P10721, A829P); test: as above; assay type: binding; conditions: KIT(A829P), 10 µM; read-out: score (%)
# T22 construct: purchased DiscoveRx (KinomeScan)
# KinomeScan kinase panel [23] = target: T23, KinomeScan kinase panel (Homo sapiens, UniProt P51957); test: as above; assay type: binding; conditions: NEK4, 10 µM; read-out: score (%)
# T23 construct: purchased DiscoveRx (KinomeScan)
# KinomeScan kinase panel [24] = target: T24, KinomeScan kinase panel (Homo sapiens, UniProt Q5S007); test: as above; assay type: binding; conditions: LRRK2, 10 µM; read-out: score (%)
# T24 construct: purchased DiscoveRx (KinomeScan)
# KinomeScan kinase panel [25] = target: T25, KinomeScan kinase panel (Homo sapiens, UniProt Q9NWZ3); test: as above; assay type: binding; conditions: IRAK4, 10 µM
# T25 construct: purchased DiscoveRx (KinomeScan)
# T25 sequence (Q9NWZ3 whole entry): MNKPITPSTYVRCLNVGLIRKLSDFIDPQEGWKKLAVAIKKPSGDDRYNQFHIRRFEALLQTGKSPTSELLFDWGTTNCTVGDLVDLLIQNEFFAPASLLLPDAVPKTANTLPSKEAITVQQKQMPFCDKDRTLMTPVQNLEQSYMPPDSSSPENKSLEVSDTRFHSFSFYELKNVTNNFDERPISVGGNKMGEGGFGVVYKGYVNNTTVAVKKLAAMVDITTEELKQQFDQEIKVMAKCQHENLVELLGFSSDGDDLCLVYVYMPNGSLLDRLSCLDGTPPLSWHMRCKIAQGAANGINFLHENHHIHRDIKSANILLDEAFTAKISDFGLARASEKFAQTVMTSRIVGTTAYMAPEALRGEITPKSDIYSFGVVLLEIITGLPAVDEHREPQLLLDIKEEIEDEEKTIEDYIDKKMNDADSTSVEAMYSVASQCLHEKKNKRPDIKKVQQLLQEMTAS
# KinomeScan kinase panel [26] = target: T26, KinomeScan kinase panel (Homo sapiens, UniProt Q9UL54); test: as above; assay type: binding; conditions: kinase TAOK2; 10 µM; read-out: score (%)
# T26 construct: purchased DiscoveRx (KinomeScan)
# KinomeScan kinase panel [27] = target: T27, KinomeScan kinase panel (Plasmodium falciparum, UniProt P62344); test: as above; assay type: binding; conditions: PFCDPK1(P.falciparum), 10 µM; read-out: score (%)
# T27 construct: purchased DiscoveRx (KinomeScan)
# T27 sequence (P62344 whole entry): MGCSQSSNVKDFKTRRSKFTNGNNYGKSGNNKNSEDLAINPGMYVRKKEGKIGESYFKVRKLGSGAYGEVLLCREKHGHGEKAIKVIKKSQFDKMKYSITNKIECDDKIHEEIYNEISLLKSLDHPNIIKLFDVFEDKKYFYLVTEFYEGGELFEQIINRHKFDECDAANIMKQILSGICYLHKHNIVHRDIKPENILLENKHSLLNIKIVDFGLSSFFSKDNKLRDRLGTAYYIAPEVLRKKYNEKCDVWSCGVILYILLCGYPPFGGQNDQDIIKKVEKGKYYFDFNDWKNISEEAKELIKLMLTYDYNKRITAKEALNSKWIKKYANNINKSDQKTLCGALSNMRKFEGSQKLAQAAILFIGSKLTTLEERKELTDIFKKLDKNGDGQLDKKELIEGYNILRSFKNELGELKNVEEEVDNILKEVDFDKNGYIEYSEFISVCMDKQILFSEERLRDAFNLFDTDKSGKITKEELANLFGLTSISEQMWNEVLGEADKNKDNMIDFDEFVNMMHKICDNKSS
# KinomeScan kinase panel [28] = target: T28, KinomeScan kinase panel (Homo sapiens, UniProt Q8TBX8); test: as above; assay type: binding; conditions: PIP5K2C, 10 µM; read-out: score (%)
# T28 construct: purchased DiscoveRx (KinomeScan)
# KinomeScan kinase panel [29] = target: T29, KinomeScan kinase panel (Homo sapiens, UniProt Q9NRH2); test: as above; assay type: binding; conditions: kinase SNRK; 10 µM; read-out: score (%)
# T29 construct: purchased DiscoveRx (KinomeScan)
smiles,measurement,setting,value
CCN1CCN(Cc2ccc(NC(=O)c3ccc(C)c(NC(=O)c4cncc(-c5cccs5)c4)c3)cc2C(F)(F)F)CC1 [ALW-II-41-27],effect on RET/PTC3-driven proliferation,Ba/F3-RET/PTC3 cells,blunted
CCN1CCN(Cc2ccc(NC(=O)c3ccc(C)c(C#Cc4cccnc4)c3)cc2C(F)(F)F)CC1 [XMD15-44],remaining binding at 10 µM,KinomeScan kinase panel [1],4.2%
same,remaining binding at 10 µM,KinomeScan kinase panel [2],> 30%
same,remaining binding at 10 µM,KinomeScan kinase panel [3],0.4%
same,remaining binding at 10 µM,KinomeScan kinase panel [4],> 30%
same,remaining binding at 10 µM,KinomeScan kinase panel [5],7.5%
same,remaining binding at 10 µM,KinomeScan kinase panel [6],89%
same,remaining binding at 10 µM,KinomeScan kinase panel [7],81%
same,remaining binding at 10 µM,KinomeScan kinase panel [8],49%
same,remaining binding at 10 µM,KinomeScan kinase panel [9],72%
same,score (%),KinomeScan kinase panel [10],nb (Hits values higher than 30% were considered negative (no binding: nb))
same,remaining binding at 10 µM,KinomeScan kinase panel [11],27%
same,score (%),KinomeScan kinase panel [12],6.5%
same,remaining binding at 10 µM,KinomeScan kinase panel [13],95%
same,remaining binding at 10 µM,KinomeScan kinase panel [14],42%
same,remaining binding at 10 µM,KinomeScan kinase panel [15],> 30%
same,remaining binding at 10 µM,KinomeScan kinase panel [16],6%
same,remaining binding at 10 µM,KinomeScan kinase panel [17],9.1%
same,remaining binding at 10 µM,KinomeScan kinase panel [18],> 30%
same,remaining binding at 10 µM,KinomeScan kinase panel [19],87%
same,remaining binding at 10 µM,"KinomeScan kinase panel [20]; CDK4-cyclinD1, 10 µM",21%
same,remaining binding at 10 µM,"KinomeScan kinase panel [20]; CDK4-cyclinD3, 10 µM",> 30%
same,remaining binding at 10 µM,KinomeScan kinase panel [21],53%
same,remaining binding at 10 µM,KinomeScan kinase panel [22],27%
same,remaining binding at 10 µM,KinomeScan kinase panel [23],6.4%
same,remaining binding at 10 µM,KinomeScan kinase panel [24],3.4%
same,score (%),KinomeScan kinase panel [25],nb (Hits values higher than 30% were considered negative (no binding: nb))
same,remaining binding at 10 µM,KinomeScan kinase panel [26],0.15%
same,remaining binding at 10 µM,KinomeScan kinase panel [27],0.05%
same,remaining binding at 10 µM,KinomeScan kinase panel [28],100%
same,remaining binding at 10 µM,KinomeScan kinase panel [29],34%
